Results as given in US20130225684A1, “METHODS AND COMPOSITIONS FOR ENHANCEMENT OF VISION PERFORMANCE” (KYOWA HAKKO BIO CO., LTD., priority 2012, published 2013).
“Also recorded” adds a separate entry of the source. Where a SMILES comes first, the peptide text is derived from it.

How the values were obtained:
[1] = alanylglutamine compared to glutamine; cited from earlier work
[2] = hand-eye reaction time on the Dynavison D2 after a 40 minute basketball game; type: in vivo, women (basketball players); conditions: for Visual reaction time: FIG. 2
Protocol: The purpose of this study was to examine the efficacy of L-alanyl-Lglutamine (AG) ingestion on sports vision, including reaction time. Ten women (21.2±1.6 years; height: 177.8±8.7 cm; body mass:73.5±8.0 kg), all basketball players, volunteered for this study. The study required subjects to first participate in a 40 minute basketball game. During one trial, subjects consumed only water (W), while during the other two trials subjects consumed the AG supplement marketed as Sustamine mixed in water using either a low dose (1 g per 500 ml) (AG1) or high dose (2 g per 500 ml) (AG2) concentration. Other subjects where not allowed to consume water or AG. (DHY) Measurement of hand-eye reaction time was performed on the Dynavison D2 (Dynavision, Ontario Canada). Subjects were required to assume a comfortable athletic stance and stand at a distance from the board where they could easily reach all of the lights. The board height was adjusted so the LCD screen was located just below eye level. Participants were told to fixate their gaze on the LCD screen in the middle of the board and to keep their focus there for the entirety of the experiment. During the assessment each subject pressed a light with their dominant side index finger on the board. When a second light flashed (on the same line of the initial light, but on the non-dominant side of their body), the subject removed their finger and pressed the new visual stimulus. The time necessary to recognize the new stimulus (new light lit until finger lifted from initial light) was recorded as visual reaction time, and the time it took for the subject to move and press the newly lit light was recorded as the motor reaction time. The total time for both visual reaction and motor reaction was calculated as the physical reaction time. A total of eight attempts were performed. The average time for all eight attempts was recorded.

[3] = alanylglutamine compared to glutamine; cited from earlier work; remark: listed apart in the source
[4] = into alanine and glutamine; cited from earlier work

Row | SMILES | heat stability [1] | Visual reaction time ([2]; AG1: low dose (1 g per 500 ml) in water, compared to DHY (no water and no AG), p=0.014) | change in the physical reaction time (combined visual and motor differences) ([2]; AG1: low dose (1 g per 500 ml) in water, compared to DHY, p=0.032) | Visual reaction time ([2]; AG2: high dose (2 g per 500 ml) in water, compared to DHY, p=0.018) | motor response (motor reaction time) ([2]; between trials (AG1, AG2, W, DHY), FIG. 3) | solubility in aqueous solutions [3] | degradation in the body [4]
1 | C[C@H](N)C(=O)N[C@@H](CCC(N)=O)C(=O)O [AG, L-alanyl-Lglutamine] (H-Ala-Gln-OH) | superior | significantly better; also recorded: enhanced visual reaction time | significantly greater | trend toward a similar response | no significant differences | superior | immediately degraded
2 | NC(=O)CC[C@H](N)C(=O)O [glutamine, reference compound] | – | – | – | – | – | low-solubility | –
